Data from US8574563B2 (Bristol-Myers Squibb Company, priority 2006, dated 2013).

system: HCV 1b-377-neo replicon cells; test: HCV replicon assay, HCV 1b-377-neo replicon cells (1b FRET); type: cell-based, Hepatitis C virus genotype 1b; conditions: HCV 1b-377-neo replicon cells; HCV 1b genotype
How it was run: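 Compounds were tested in genotype 1b subgenomic replicon cells carrying a neomycin marker, alongside a matched replicon line with an NS5A Y2065H substitution that confers resistance to a reference NS5A inhibitor.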

Row | SMILES | EC50 range against HCV 1b (Table 2, Range)
1 | CCN(CC)[C@@H](C(=O)N1CCC[C@H]1c1ncc(-c2ccc(-c3ccc(-c4cnc([C@@H]5CCCN5C(=O)[C@@H](C(C)C)N(CC)CC)[nH]4)cc3)cc2)[nH]1)C(C)C [Example M10, (2R,2′R)-1,1′-(4,4′-biphenyldiylbis(1H-imidazole-5,2-diyl(2S)-2,1-pyrrolidinediyl))bis(N,N-diethyl-3-methyl-1-oxo-2-butanamine)] | >A

same assay, conditions: Hepatitis C virus, HCV 1b-377-neo replicon cells; HCV 1b genotype; read-out: EC50 range against HCV 1b (Table 2, Range)

Row | SMILES | EC50
2 | O=C([C@H](O)c1ccccc1)N1CCC[C@H]1c1ncc(-c2ccc(-c3ccc(-c4cnc([C@@H]5CCCN5C(=O)[C@H](O)c5ccccc5)[nH]4)cc3)cc2)[nH]1 [Example 2, (1R,1′R)-2,2′-(4,4′-biphenyldiylbis(1H-imidazole-5,2-diyl(2S)-2,1-pyrrolidinediyl))bis(2-oxo-1-phenylethanol)] | 0.001 to 0.999 nM
3 | COC(=O)N[C@@H](C)C(=O)N1CCC[C@H]1c1ncc(-c2ccc(-c3ccc(-c4cnc([C@@H]5CCCN5C(=O)[C@H](Cc5cccnc5)NC(=O)OC)[nH]4)cc3)cc2)[nH]1 [cj-85, methyl ((1S)-2-((2S)-2-(5-(4′-(2-((2S)-1-(N-(methoxycarbonyl)-L-alanyl)-2-pyrrolidinyl)-1H-imidazol-5-yl)-4-biphenylyl)-1H-imidazol-2-yl)-1-pyrrolidinyl)-2-oxo-1-(3-pyridinylmethyl)ethyl)carbamate] | 0.001 to 0.999 nM
4 | CC(C)[C@H](NC(=O)C1CC1)C(=O)N1[C@@H]2C[C@@H]2C[C@H]1c1ncc(-c2ccc(-c3ccc(-c4cnc([C@@H]5C[C@H]6C[C@H]6N5C(=O)[C@@H](NC(=O)C5CC5)C(C)C)[nH]4)cc3)cc2)[nH]1 [Example M141, N-((1S)-1-(((1R,3S,5R)-3-(4-(4′-(2-((1R,3S,5R)-2-((2S)-2-((cyclopropylcarbonyl)amino)-3-methylbutanoyl)-2-azabicyclo[3.1.0]hex-3-yl)-1H-imidazol-4-yl)-4-biphenylyl)-1H-imidazol-2-yl)-2-azabicyclo[3.1.0]hex-2-yl)carbonyl)-2-methylpropyl)cyclopropanecarbamate] | 1 to 99 nM
5 | COC(=O)N[C@H](C(=O)N1CCC[C@H]1c1ncc(-c2ccc(-c3ccc(-c4cnc([C@@H]5CCCN5C(=O)[C@@H](NC(=O)OC)C5CC5)[nH]4)c(F)c3)cc2)[nH]1)C(C)C [Example D50, methyl ((1S)-1-cyclopropyl-2-((2S)-2-(5-(3-fluoro-4′-(2-((2S)-1-(N-(methoxycarbonyl)-L-valyl)-2-pyrrolidinyl)-1H-imidazol-5-yl)-4-biphenylyl)-1H-imidazol-2-yl)-1-pyrrolidinyl)-2-oxoethyl)carbamate] | 0.001 to 0.999 nM
6 | C[C@H](NC(=O)N(C)C)C(=O)N1CCC[C@H]1c1ncc(-c2ccc(-c3ccc(-c4cnc([C@@H]5CCCN5C(=O)[C@H](C)NC(=O)N(C)C)[nH]4)cc3)cc2)[nH]1 [OL-2, 3-((1S)-2-((2S)-2-(4-(4′-(2-((2S)-1-(N-(dimethylcarbamoyl)-L-alanyl)-2-pyrrolidinyl)-1H-imidazol-4-yl)-4-biphenylyl)-1H-imidazol-2-yl)-1-pyrrolidinyl)-1-methyl-2-oxoethyl)-1,1-dimethylurea] | 0.001 to 0.999 nM
7 | COCC[C@H](NC(=O)OC)C(=O)N1CCC[C@H]1c1ncc(-c2ccc(-c3ccc(-c4cnc([C@@H]5CCCN5C(=O)[C@@H](NC(=O)OC)C(C)C)[nH]4)cc3)cc2)[nH]1 [cj-119, methyl ((1S)-1-(((2S)-2-(5-(4′-(2-((2S)-1-(N-(methoxycarbonyl)-O-methyl-L-homoseryl)-2-pyrrolidinyl)-1H-imidazol-5-yl)-4-biphenylyl)-1H-imidazol-2-yl)-1-pyrrolidinyl)carbonyl)-2-methylpropyl)carbamate] | 0.001 to 0.999 nM
8 | COC(=O)N[C@@H](C(=O)N1CCC[C@H]1c1ncc(-c2ccc(-c3ccc(-c4cnc([C@@H]5CCCN5C(=O)c5cccnc5)[nH]4)cc3)cc2)[nH]1)c1ccccc1 [Example 68, methyl ((1R)-2-oxo-1-phenyl-2-((2S)-2-(5-(4′-(2-((2S)-1-(3-pyridinylcarbonyl)-2-pyrrolidinyl)-1H-imidazol-5-yl)-4-biphenylyl)-1H-imidazol-2-yl)-1-pyrrolidinyl)ethyl)carbamate] | 0.001 to 0.999 nM
9 | COC(=O)N[C@@H](C(=O)N1CCC[C@H]1c1ncc(-c2ccc(-c3ccc(-c4cnc([C@@H]5CCCN5C(=O)Cc5ccccc5CN5CCOCC5)[nH]4)cc3)cc2)[nH]1)c1ccccc1 [Example 84-84, methyl ((1R)-2-((2S)-2-(5-(4′-(2-((2S)-1-((2-(4-morpholinylmethyl)phenyl)acetyl)-2-pyrrolidinyl)-1H-imidazol-5-yl)-4-biphenylyl)-1H-imidazol-2-yl)-1-pyrrolidinyl)-2-oxo-1-phenylethyl)carbamate] | 0.001 to 0.999 nM
10 | CCN(CC)[C@@H](C(=O)N1CCC[C@H]1c1ncc(-c2ccc(-c3ncc(-c4c[nH]c([C@@H]5CCCN5C(=O)[C@H](C)NC(=O)OC)n4)cn3)cc2)[nH]1)c1ccccc1 [Example D77, methyl ((1S)-2-((2S)-2-(5-(2-(4-(2-((2S)-1-((2R)-2-(diethylamino)-2-phenylacetyl)-2-pyrrolidinyl)-1H-imidazol-5-yl)phenyl)-5-pyrimidinyl)-1H-imidazol-2-yl)-1-pyrrolidinyl)-1-methyl-2-oxoethyl)carbamate] | 0.001 to 0.999 nM
11 | COC(=O)N[C@H](C(=O)N1CC[C@H](O)[C@H]1c1nc(-c2ccc(-c3ccc(-c4c[nH]c([C@@H]5CCCN5C(=O)[C@@H](NC(=O)OC)C(C)C)n4)cc3)cc2)c[nH]1)C(C)C [OL-19, methyl ((1S)-1-(((2R,3S)-3-hydroxy-2-(4-(4′-(2-((2S)-1-((2S)-2-((methoxycarbonyl)amino)-3-methylbutanoyl)-2-pyrrolidinyl)-1H-imidazol-4-yl)-4-biphenylyl)-1H-imidazol-2-yl)-1-pyrrolidinyl)carbonyl)-2-methylpropyl)carbamate] | 0.001 to 0.999 nM
12 | COC(=O)N[C@](C)(C(=O)N1CCC[C@H]1c1nc(-c2ccc(-c3ccc(-c4cnc([C@@H]5CCCN5C(=O)[C@@](C)(NC(=O)OC)C(C)C)[nH]4)cc3)cc2)c[nH]1)C(C)C [Example F37, methyl ((1S)-1-(((2S)-2-(4-(4′-(2-((2S)-1-((2S)-2-((methoxycarbonyl)amino)-2,3-dimethylbutanoyl)-2-pyrrolidinyl)-1H-imidazol-5-yl)-4-biphenylyl)-1H-imidazol-2-yl)-1-pyrrolidinyl)carbonyl)-1,2-dimethylpropyl)carbamate] | 100 to 999 nM
13 | CCN(CC)[C@H]1CC[C@@H](C(=O)N2CCC[C@H]2c2ncc(-c3ccc(-c4ccc(-c5cnc([C@@H]6CCCN6C(=O)[C@H]6CC[C@@H](N(CC)CC)CC6)[nH]5)cc4)cc3)[nH]2)CC1 [cj-152] | 1 to 99 nM
14 | COC(=O)N[C@@H](C(=O)N1CCC[C@H]1c1ncc(-c2ccc(-c3ccc(-c4cnc([C@@H]5CCCN5C(=O)c5ncco5)[nH]4)cc3)cc2)[nH]1)c1ccccc1 [Example 71, methyl ((1R)-2-((2S)-2-(5-(4′-(2-((2S)-1-(1,3-oxazol-2-ylcarbonyl)-2-pyrrolidinyl)-1H-imidazol-5-yl)-4-biphenylyl)-1H-imidazol-2-yl)-1-pyrrolidinyl)-2-oxo-1-phenylethyl)carbamate] | 0.001 to 0.999 nM
15 | O=C(N[C@@H](C(=O)N1CCC[C@H]1c1ncc(-c2ccc(-c3ccc(-c4cnc([C@@H]5CCCN5C(=O)[C@H](NC(=O)N5CCOCC5)c5ccccc5)[nH]4)cc3)cc2)[nH]1)c1ccccc1)N1CCOCC1 [Example 25-6, N,N′-(4,4′-biphenyldiylbis(1H-imidazole-5,2-diyl(2S)-2,1-pyrrolidinediyl((1R)-2-oxo-1-phenyl-2,1-ethanediyl)))di(4-morpholinecarboxamide)] | 1 to 99 nM
16 | COC(=O)N[C@H](C(=O)N1CCC[C@H]1c1ncc(-c2ccc(-c3ccc(-c4cnc([C@@H]5CCCN5C(=O)[C@@H](NC(=O)OC)C(C)C)[nH]4)cc3CN(C)C)cc2)[nH]1)C(C)C [Example M120] | 100 to 999 nM
17 | CC(=O)N[C@@H](C(=O)N1CCC[C@H]1c1ncc(-c2ccc(-c3ccc(-c4cnc([C@@H]5CCCN5C(=O)[C@H]5CCCO5)[nH]4)cc3)cc2)[nH]1)c1ccccc1 [Example 118, N-((1R)-2-oxo-1-phenyl-2-((2S)-2-(5-(4′-(2-((2S)-1-((2R)-tetrahydro-2-furanylcarbonyl)-2-pyrrolidinyl)-1H-imidazol-5-yl)-4-biphenylyl)-1H-imidazol-2-yl)-1-pyrrolidinyl)ethyl) acetamide] | 0.001 to 0.999 nM
18 | COC(=O)N[C@@H](C)C(=O)N1CCC[C@H]1c1ncc(-c2ccc(-c3ccc(-c4cnc([C@@H]5CCCN5C(=O)[C@H](Cc5c[nH]nn5)NC(=O)OC)[nH]4)cc3)cc2)[nH]1 [cj-33, methyl ((1S)-2-((2S)-2-(5-(4′-(2-((2S)-1-(N-(methoxycarbonyl)-L-alanyl)-2-pyrrolidinyl)-1H-imidazol-5-yl)-4-biphenylyl)-1H-imidazol-2-yl)-1-pyrrolidinyl)-2-oxo-1-(1H-1,2,3-triazol-4-ylmethyl)ethyl)carbamate] | 0.001 to 0.999 nM
19 | CN(C)CC(=O)N1CCC[C@H]1c1ncc(-c2ccc(-c3ccc(-c4cnc([C@@H]5CCCN5C(=O)CN(C)C)[nH]4)cc3)cc2)[nH]1 [Example 14, 2,2′-(4,4′-biphenyldiylbis(1H-imidazole-5,2-diyl(2S)-2,1-pyrrolidinediyl))bis(N,N-dimethyl-2-oxoethanamine)] | 100 to 999 nM
20 | CCN(CC)C(C)C(=O)N1CCC[C@H]1c1nc(C(F)(F)F)c(-c2ccc(-c3ncc(-c4cnc([C@@H]5CCCN5C(=O)[C@@H](C)N(CC)CC)[nH]4)cn3)cc2)[nH]1 (stereo in doubt) [Example J51, (2R)-1-((2S)-2-(5-(4-(5-(2-((2S)-1-((2R)-2-(diethylamino)propanoyl)-2-pyrrolidinyl)-1H-imidazol-5-yl)-2-pyrimidinyl)phenyl)-4-(trifluoromethyl)-1H-imidazol-2-yl)-1-pyrrolidinyl)-N,N-diethyl-1-oxo-2-propanamine] | 1 to 99 nM
